The results in this text go back to the METLIN SMRT retention time set (Domingo-Almenara et al. 2019).

The nature of the series: gradient 5% acetonitrile 3 min, to 50% in 2 min, to 85% in 15 min, held 3 min, 100 µL/min. The following applies: column: Zorbax Extend-C18 2.1 x 50 mm; eluents: water / acetonitrile, 0.1% formic acid. The gist of the method:
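Pure standards were run in mixtures of ~100 molecules by HPLC coupled to a quadrupole time-of-flight mass spectrometer. The column was a Zorbax Extend-C18 (2.1 × 50 mm, 1.8 μm) at 100 μL/min, with water and acetonitrile each containing 0.1% formic acid, in positive and negative ionization mode. Dead and dwell volumes were 40 μL and 900 μL. Retention time was taken from computationally picked adduct peaks, each manually inspected, with data collected over 3 months.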
`CCc1noc(NC(C)=O)c1-c1ccc(C)c(S(=O)(=O)Nc2ccc(C(F)(F)F)cc2)c1` registered an RP-LC retention time of 902 s.

Regarding `Cc1ccccc1-n1ccn(Cc2nc(-c3cccc(Br)c3)no2)c(=O)c1=O`, the RP-LC retention time came out at 931 s.

Consider `COc1ccc(NC(=O)c2cn3c(n2)CCCC3)cc1Cl`, for which the RP-LC retention time came to 609 s.

As to `Cc1ccc(NC(=O)C2CCN(S(=O)(=O)c3cc(C(=O)N4CCCC4)cs3)CC2)cc1Cl`, the RP-LC retention time was found to be 916 s.

For `CCN(Cc1ccccc1)C(=O)CN1C(=O)N(c2cc(C)cc(C)c2)C2CS(=O)(=O)CC21` (centres undefined), the RP-LC retention time is 893 s.

In the case of `O=C1COc2ccccc2N1Cc1nc(-c2ccc(F)c(Br)c2)no1`, the RP-LC retention time worked out at 1120 s.

In the case of `CC(C)CCNC(=O)N1CCN(Cc2nc3ccc(Cl)cc3o2)CC1`, the RP-LC retention time came out at 746 s.

In turn, `Cc1cc(C2CCCN2C(=O)Nc2ccc(C)c(Cl)c2)on1` (centres undefined) returned an RP-LC retention time of 893 s.

`CCc1cccc(NC(=O)Cc2nc(C)c(C(=O)NCC(C)C)s2)c1`: the RP-LC retention time came to 886 s.

As for `CC(C)(C)NC(=O)N1CCN(c2cc(-c3cccc(F)c3)ncn2)CC1`, the RP-LC retention time was 669 s.

Regarding `COc1cccc(S(=O)(=O)N2C[C@@H]3C[C@H](NC(=O)c4cccs4)[C@H]2C3)c1`, the RP-LC retention time was determined as 854 s.

`Cc1ccn2cc(-c3ccc(NC(=O)c4cccc(C(F)(F)F)c4)cc3)nc2n1` registered an RP-LC retention time of 716 s.

`COc1cccc(CC(=O)N2CCC3(CC2)N=C(c2ccc(Cl)cc2)NO3)c1`: the RP-LC retention time came to 922 s.

Consider `O=C(NCCC1CCN(S(=O)(=O)c2ccc(F)cc2)CC1)NCc1ccc(F)cc1`, for which the RP-LC retention time amounted to 852 s.

Compound `Cc1cc(C)c2c(SC(C)C)nc(N)nc2n1` registered an RP-LC retention time of 676 s.

Compound `CCn1cc(S(=O)(=O)NCc2cccc(C)c2)c2cccnc21` showed an RP-LC retention time of 845 s.

`Cc1cc(C)c(C(=O)N2CCC(CC(=O)NCc3cccc(Br)c3)CC2)[nH]1` registered an RP-LC retention time of 820 s.

Compound `O=C(Cn1nc2c(N3CCCCCC3)nccn2c1=O)Nc1ccc(F)cc1` had an RP-LC retention time of 715 s.

`CC(C)C(=O)Nc1nc(-c2ccc3c(c2)N(C)C(=O)CO3)cs1`: the RP-LC retention time came out at 787 s.

As to `COC1C(=O)N(c2cccc(F)c2)C12CCN(S(=O)(=O)Cc1ccccc1)CC2` (centres undefined), the RP-LC retention time was found to be 1020 s.

As to `Cc1cccc(Nc2nc(C)c(C(=O)NC3CCN(Cc4ccccc4)CC3)s2)n1`, the RP-LC retention time is 645 s.

Compound `Cc1c(N2C(=O)[C@@H]3[C@H](O)CCN3C2=O)ccc(C#N)c1Cl` had an RP-LC retention time of 765 s.

`CCCN1CCN(c2ncc3c(n2)CCN(Cc2cccc(OC)c2)C3)CC1` had an RP-LC retention time of 1120 s.

`COc1ccc(NC(=O)N2CCC(n3c(-c4ccco4)nc4cccnc43)C2)cc1` (centres undefined) came in with an RP-LC retention time of 708 s.

Compound `Cn1cc(-c2cc3n(n2)CCC(=O)N3CCCC(=O)NCc2cccnc2)c2ccccc21` registered an RP-LC retention time of 616 s.

With `CC(C)(C)NCC(O)c1cc(Cl)c(N)c(C(F)(F)F)c1` (centres undefined), the RP-LC retention time was 708 s.

For the compound `O=C(NC1CCN(Cc2ccccc2)CC1)c1ccc2nc3ccc(Cl)cc3c(=O)n2c1`, the RP-LC retention time was 665 s.

Take `Cc1cc(N(C)C)n2nc(-c3ccc(Cl)cc3)c(C)c2n1`: the RP-LC retention time worked out at 744 s.

`OCC(O)C1OCOC(C(O)CO)C1O` (centres undefined): the RP-LC retention time is 719 s.

`COc1ccc(-c2ccc(=O)n(Cc3nc(-c4cccc(Cl)c4)no3)n2)cc1` returned an RP-LC retention time of 1080 s.

Compound `COCCC(=O)N1CCCN(C2=NS(=O)(=O)C(c3ccc(C)cc3)=C2C)CC1` yielded an RP-LC retention time of 720 s.

Turning to `O=C1COc2cc(S(=O)(=O)N3CCC(C(=O)NCC4CCCO4)CC3)c(Cl)cc2N1` (centres undefined), the RP-LC retention time was determined as 653 s.

`Cc1oc2ccn(Cc3ccc(F)cc3)c(=O)c2c1C(=O)O` showed an RP-LC retention time of 873 s.

The compound `CSc1cccc(NC(=O)N2CCC3(CC2)NC(=O)c2ccccc2O3)c1` came in with an RP-LC retention time of 793 s.

With `Cc1ccc(-c2nc(-c3ccc4nnn(C)c4c3)no2)cc1`, the RP-LC retention time was 968 s.

The compound `CC(C)CNC(=O)C(=O)NCc1ccccn1` showed an RP-LC retention time of 552 s.

As for `Cc1ccc(S(=O)(=O)c2cnc(N3CCc4ccccc4C3)nc2N)cc1C`, the RP-LC retention time worked out at 1150 s.

`O=C(NCc1cccnc1)c1nnc(-c2ccc(S(=O)(=O)N3CCCCC3)cc2)o1` yielded an RP-LC retention time of 669 s.

`CCOc1cc(=O)n2c(c1C(=O)Nc1cc(F)ccc1Cl)CCCC2` came in with an RP-LC retention time of 822 s.

Compound `CCc1nc(-c2csc(S(=O)(=O)N3CCCC(C(=O)Nc4ccc(F)cc4)C3)c2)no1` (centres undefined) showed an RP-LC retention time of 1030 s.

In turn, `O=C(NCCc1csc(-c2cccs2)n1)C1CCN(C(=O)c2ccc(F)c(F)c2)CC1` yielded an RP-LC retention time of 809 s.

`CCCCOC(=O)c1ccc(NC(=O)c2c(OC)cc(=O)n3c2CCCC3)cc1` yielded an RP-LC retention time of 857 s.

`CCCNC(=O)c1ccc2c(c1)N(C)C(=O)CS2` displayed an RP-LC retention time of 843 s.

`CCc1ccc(-n2nc(CO)c(C(=O)NC3CCCC3)n2)cc1`: the RP-LC retention time amounted to 1120 s.

In the case of `COCCNC(=O)C1c2cc(OC)c(OC)cc2C(=O)N(C)C1c1ccc(OC)c(OC)c1` (centres undefined), the RP-LC retention time came to 642 s.

Take `O=C(NCc1cccc(F)c1)N1C[C@@H]2C[C@H](NS(=O)(=O)c3ccccc3)[C@H]1C2`: the RP-LC retention time is 782 s.

Turning to `Cc1ccc(N2CCN(C(=O)c3cn4c(n3)COCC4)CC2)cc1`, the RP-LC retention time is 651 s.

Compound `COc1ccc(CNS(=O)(=O)c2cc(-c3nc(C(C)C)cs3)sc2C)cc1` registered an RP-LC retention time of 1180 s.

Turning to `O=C(Nc1ccc(F)cc1F)C1CCN(S(=O)(=O)c2cc(C(=O)N3CCCC3)cs2)CC1`, the RP-LC retention time amounted to 803 s.

`Cc1cccc(-c2nc(Cn3nnc(-c4nc(-c5cccnc5)no4)c3C)c(C)o2)c1` came in with an RP-LC retention time of 1060 s.

Compound `COc1ccc(OCC(=O)N2CCC(C(=O)NCCc3csc(-c4cccs4)n3)CC2)cc1` registered an RP-LC retention time of 777 s.

In turn, `Cc1ccc(C(=O)N2CCCn3cc(-c4ccccc4F)nc32)cn1` came in with an RP-LC retention time of 627 s.

Consider `Cc1ccc(CN2CCN(C3CCN(C(=O)Nc4ccc5c(c4)OCCO5)CC3)C(=O)C2=O)cc1`, for which the RP-LC retention time is 715 s.

With `COc1ccc(N2CC(c3nc(-c4ccc5c(c4)OCO5)no3)CC2=O)cc1OC` (centres undefined), the RP-LC retention time was determined as 824 s.

`COc1ccc(NC(=O)Cn2ccc3ccc(-c4nnc(C)o4)cc32)cc1Cl` registered an RP-LC retention time of 811 s.

Turning to `Cc1cccc(-c2nc(NCc3ccncc3)ncc2C(=O)O)c1`, the RP-LC retention time was determined as 587 s.

In the case of `CCc1ccc(N2CC(c3noc(-c4ccc(OC)cc4)n3)CC2=O)cc1` (centres undefined), the RP-LC retention time stood at 1080 s.

`COc1ccc(Cl)cc1NC(=O)N(C)CCc1noc(COc2ccccc2)n1` yielded an RP-LC retention time of 1010 s.

`Cc1nnc(N2CCCC(C(=O)N(C)Cc3ccccc3)C2)c2nn(-c3ccc(Cl)cc3)c(C)c12` (centres undefined): the RP-LC retention time was 795 s.

On to `O=C(Cc1cccc(Cl)c1)Nc1ccsc1-c1nnc(C2CC2)o1`, for which the RP-LC retention time turned out to be 1240 s.

Regarding `CCN(c1ccc(F)cc1)S(=O)(=O)c1cc2n(c1)CCCNC2=O`, the RP-LC retention time was found to be 721 s.

Compound `COc1cccc(CNC(=O)C2CCN(S(=O)(=O)c3ccc4c(c3)sc(=O)n4C)CC2)c1` displayed an RP-LC retention time of 798 s.

For `CCCS(=O)(=O)NCC1CC(=O)N(c2ccc(F)cc2)C1` (centres undefined), the RP-LC retention time came out at 669 s.

Turning to `CCOC(=O)C1=C(c2ccc(OC)cc2)NC(=O)NC1c1ccc(OC)cc1` (centres undefined), the RP-LC retention time stood at 840 s.

`COc1ccccc1N1CCN(C(=O)c2cn(-c3ccc(NC(=O)C4CC4)cn3)cn2)CC1` registered an RP-LC retention time of 699 s.

In turn, `COc1cccc(NC(=O)C2CCCN(c3ncnc4c3nc3n4CCCCC3)C2)c1` (centres undefined) yielded an RP-LC retention time of 781 s.

In the case of `CNC(=O)c1cc[nH]c1C1CCCN(C(=O)c2ccc(Br)o2)C1` (centres undefined), the RP-LC retention time worked out at 674 s.

As for `CCOC(=O)c1ccc2c(=O)c(C(=O)OCC)c[nH]c2c1`, the RP-LC retention time worked out at 661 s.

The compound `O=C(NC1CCCCC1)C1CCCN(c2ncnc3c2nc2n3CCCCC2)C1` (centres undefined) showed an RP-LC retention time of 778 s.

`CCCN1C(=O)c2c(C(=O)NCc3cccc(C)c3)ncn2CC1(C)C(=O)NC1CCCC1` (centres undefined) registered an RP-LC retention time of 851 s.

`Cc1ccc(Cn2nc3ccc(S(=O)(=O)N4CCc5ccccc5C4)cn3c2=O)cc1` had an RP-LC retention time of 1050 s.

Turning to `CCCn1c(C)cnc1C1CN(C(=O)c2ccoc2)C1`, the RP-LC retention time is 573 s.

The compound `CCc1ccc(CNC(=O)C2CCCN(c3nc4c(s3)c(C)nn4-c3ccccc3)C2)cc1` (centres undefined) showed an RP-LC retention time of 1230 s.

As for `O=C(NCCCc1ccccc1)C1CCCN(c2nccnc2Oc2ccccc2)C1` (centres undefined), the RP-LC retention time came out at 1020 s.

`CS(=O)(=O)N1CCC(C(=O)N2CCC(COCc3ccccc3)CC2)CC1` showed an RP-LC retention time of 772 s.

Turning to `O=C(COc1ccccc1)N1CCCC(COc2ccc(C(=O)N3CCCC3)cc2)C1` (centres undefined), the RP-LC retention time amounted to 808 s.

For `CCCCC(=O)Nc1ccc(OCc2cc(C(=O)NC(C)C)no2)cc1`, the RP-LC retention time turned out to be 827 s.

Turning to `COC(=O)c1cc(S(=O)(=O)N2CCCC2C(=O)Nc2c(Cl)cc(OC)cc2OC)cn1C` (centres undefined), the RP-LC retention time is 930 s.

`O=c1c2cc(-c3ccc(F)cc3)nn2cnn1Cc1nc(-c2ccc(Br)cc2)no1` returned an RP-LC retention time of 1210 s.
